Measured values from patent US4260623A, “Hexahydro-1-arylspiro(3H-oxazolo(3,4-A)pyridine-3,4'-piperidene) antidepressants, pharmaceutical compositions thereof and method of use thereof” (Warner-Lambert Company, priority 1979, dated 1981).

How the values were obtained:
[1] = system: neuronal-uptake of norepinephrine; test: inhibition of the neuronal-uptake of norepinephrine (tritium content of the hearts); type: in vivo; details: Mus musculus, 1 h; at 50 mg/kg oral, male mice, heart; norepinephrine-3H i.v. one hour after dosing; vs vehicle control; read-out: % Inhibition of Amine Uptake, Norepinephrine
Method: (§1) Int. Pharmacoldyn 225, 317-329 (1977)].
(§2) According to this procedure, male mice weighing approximately 25 grams are fasted overnight, then groups of five or more mice are dosed with the test compound or methocel vehicle at 50 mg/kg by oral route. After an interval of one hour, the mice are given an intravenous injection of a saline solution containing 0.5 μCi of norepinephrine-^3 H, 0.5 μCi of serotonin^14 C, and 1 mg/ml of ascorbic acid. The mice are then sacrificed about 15 minutes later, their hearts and spleens rinsed and weighed, and dissolved in a tissue solubilizer. The tritium content of the hearts and carbon-14 content of the spleen are determined by scintillation counting. The percent inhibition of uptake in comparison with the vehicle control group is then recorded.

[2] = system: neuronal-uptake of serotonin; test: inhibition of the neuronal-uptake of serotonin (carbon-14 content of the spleen); type: in vivo; details: Mus musculus, 1 h, at 50 mg/kg oral, male mice, serotonin-14C i.v. one hour after dosing, vs vehicle control, read-out: % Inhibition of Amine Uptake, Serotonin
Method: as §1, §2

Structure (SMILES)	inhibition at 50 mg/kg [1]	inhibition at 50 mg/kg [2]
Fc1cccc(C2OC3(CCNCC3)N3CCCCC23)c1 (stereo not shown) [Example 5, hexahydro-1-(3-fluorophenyl)spiro[3H-oxazolo[3,4-a]pyridine-3,4'-piperidine]]	70%	89%
COc1ccc(C2OC3(CCNCC3)N3CCCCC23)cc1 (stereo not shown) [Example 14, Hexahydro-1-(4-methoxyphenyl)spiro[3H-oxazolo[3,4-a]pyridine-3,4'-piperidine]]	57%	89%
Fc1ccc(C2OC3(CCNCC3)N3CCCCC23)cc1 (stereo not shown) [Example 11, Hexahydro-1-(4-fluorophenyl)spiro[3H-oxazolo[3,4-a]pyridine-3,4'-piperidine]]	73%	89%
Fc1cccc(C2OC3(CCN(Cc4ccccc4)CC3)N3CCCCC23)c1 (stereo not shown) [Example 4, hexahydro-1'-benzyl-1-(3-fluorophenyl)spiro[3H-oxazolo[3,4-a]pyridine-3,4'-piperidine]]	58%	79%
CN1CCC2(CC1)OC(c1ccccc1)C1CCCCN12 (stereo not shown) [Example 3, Hexahydro-1'-methyl-1-phenylspiro[3H-oxazolo[3,4-a]pyridine-3,4'-piperidine]]	73%	73%
COc1ccccc1C1OC2(CCNCC2)N2CCCCC12 (stereo not shown) [Example 7, hexahydro-1-(2-methoxyphenyl)spiro[3H-oxazolo[3,4-a]pyridine-3,4'-piperidine]]	67%	71%
FC(F)(F)c1cccc(C2OC3(CCNCC3)N3CCCCC23)c1 (stereo not shown) [Example 9, hexahydro-1-[3-(trifluoromethyl)phenyl]spiro[3H-oxazolo[3,4-a]pyridine-3,4'piperidine]]	64%	86%
CN1CCC2(CC1)OC(c1ccc(Cl)cc1)C1CCCCN12 (stereo not shown) [Example 13, hexahydro-1'-methyl-1-(4-chlorophenyl)spiro[3H-oxazolo[3,4-a]pyridine-3,4'-piperidine]]	77%	91%
c1ccc(C2OC3(CCNCC3)N3CCCCC23)cc1 (stereo not shown) [Example 2, Hexahydro-1-phenylspiro[3H-oxazolo[3,4-a]pyridine-3,4'-piperidine]]	70%	83%
c1ccc(C2OC3(CCN(CC4CC4)CC3)N3CCCCC23)cc1 (stereo not shown) [Example 15, hexahydro-1'-(cyclopropylmethyl)-1-phenylspiro[3H-oxazolo[3,4-a]pyridine-3,4'-piperidine]]	62%	77%
Clc1ccc(C2OC3(CCN(Cc4ccccc4)CC3)N3CCCCC23)cc1 (stereo not shown) [Example 12, hexahydro-1'-benzyl-1-(4-chlorophenyl)spiro[3H-oxazolo[3,4-a]pyridine-3,4'-piperidine]]	59%	84%
